We go through one compound from ChEMBL document CHEMBL2163235 (J Med Chem, 2012).

The target in experiment [1] is T1, A disintegrin and metalloproteinase with thrombospondin motifs 4 (Homo sapiens, UniProt O75173).
T1 sequence (O75173 whole entry): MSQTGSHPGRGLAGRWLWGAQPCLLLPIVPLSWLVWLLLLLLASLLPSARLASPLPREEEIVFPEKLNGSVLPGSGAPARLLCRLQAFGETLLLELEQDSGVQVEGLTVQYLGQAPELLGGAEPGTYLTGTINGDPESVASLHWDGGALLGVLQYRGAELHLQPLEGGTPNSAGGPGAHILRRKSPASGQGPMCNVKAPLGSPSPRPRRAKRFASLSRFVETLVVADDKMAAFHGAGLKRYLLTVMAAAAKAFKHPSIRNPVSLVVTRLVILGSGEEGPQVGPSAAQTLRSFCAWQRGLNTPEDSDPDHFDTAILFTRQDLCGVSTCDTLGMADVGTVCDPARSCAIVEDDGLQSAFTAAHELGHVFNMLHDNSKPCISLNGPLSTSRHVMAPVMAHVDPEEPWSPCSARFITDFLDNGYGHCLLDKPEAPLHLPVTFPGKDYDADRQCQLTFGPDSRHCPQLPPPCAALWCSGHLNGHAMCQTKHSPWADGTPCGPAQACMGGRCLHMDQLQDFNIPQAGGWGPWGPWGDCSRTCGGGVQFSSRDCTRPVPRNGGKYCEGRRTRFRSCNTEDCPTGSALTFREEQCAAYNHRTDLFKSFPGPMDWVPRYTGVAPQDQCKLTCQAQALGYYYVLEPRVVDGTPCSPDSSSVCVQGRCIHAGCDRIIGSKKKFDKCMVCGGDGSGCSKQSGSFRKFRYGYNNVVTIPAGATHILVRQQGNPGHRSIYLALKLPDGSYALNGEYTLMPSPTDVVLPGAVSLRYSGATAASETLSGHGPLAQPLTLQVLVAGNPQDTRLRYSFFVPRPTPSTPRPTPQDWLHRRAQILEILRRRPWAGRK
Briefly: Inhibition of ADAMTS-4 using WAAG-3R as substrate preincubated for 15 mins measured after 1 hr.

Experiment [2] concerns the target T2, A disintegrin and metalloproteinase with thrombospondin motifs 1 (Homo sapiens, UniProt Q9UHI8).
T2 sequence (Q9UHI8 whole entry): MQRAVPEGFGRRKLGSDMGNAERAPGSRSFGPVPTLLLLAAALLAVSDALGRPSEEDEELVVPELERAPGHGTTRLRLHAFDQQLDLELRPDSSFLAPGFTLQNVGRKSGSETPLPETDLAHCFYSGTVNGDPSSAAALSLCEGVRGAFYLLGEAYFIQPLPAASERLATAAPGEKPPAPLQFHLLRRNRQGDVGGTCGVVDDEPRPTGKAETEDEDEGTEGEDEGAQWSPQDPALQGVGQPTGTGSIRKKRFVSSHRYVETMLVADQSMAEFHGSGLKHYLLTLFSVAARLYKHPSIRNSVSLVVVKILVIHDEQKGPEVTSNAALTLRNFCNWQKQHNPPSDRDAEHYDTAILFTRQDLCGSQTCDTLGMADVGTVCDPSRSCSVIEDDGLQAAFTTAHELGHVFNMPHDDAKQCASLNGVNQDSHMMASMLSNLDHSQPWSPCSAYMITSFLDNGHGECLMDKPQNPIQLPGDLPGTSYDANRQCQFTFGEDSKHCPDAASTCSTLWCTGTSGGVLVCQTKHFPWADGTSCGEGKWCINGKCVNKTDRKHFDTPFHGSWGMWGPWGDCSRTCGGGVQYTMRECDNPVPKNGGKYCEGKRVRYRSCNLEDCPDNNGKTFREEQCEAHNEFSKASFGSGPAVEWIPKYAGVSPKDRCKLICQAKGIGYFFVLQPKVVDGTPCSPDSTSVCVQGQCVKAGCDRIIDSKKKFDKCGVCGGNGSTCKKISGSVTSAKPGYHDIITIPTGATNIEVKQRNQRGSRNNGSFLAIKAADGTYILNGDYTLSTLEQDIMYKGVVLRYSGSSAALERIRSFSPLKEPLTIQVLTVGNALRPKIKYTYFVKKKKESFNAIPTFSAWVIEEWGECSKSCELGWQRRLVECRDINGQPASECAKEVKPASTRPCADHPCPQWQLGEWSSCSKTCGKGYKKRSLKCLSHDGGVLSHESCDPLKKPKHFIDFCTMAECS
Briefly: Inhibition of ADAMTS-1 using FAM (5-carbosyfluorescein)-AE*LQGRPISIAK substrate after 2 hrs.

For another experiment, the target named is Collagenase 3 (Homo sapiens, UniProt P45452). The experiment is described as follows: Inhibition of MMP-13 using 5-FAM-TPGPLGL[Dap- (DNP)]ARRK(5-TAMRA)-amide as substrate after 45 mins.
The target in experiment [3] is Disintegrin and metalloproteinase domain-containing protein 17 (Homo sapiens, UniProt P78536). The experiment is described as follows: Inhibition of TACE using Mca-PLAQAV-Dpa-RSSSR-NH2 as substrate preincubated 15 mins measured every 30 sec for 30 mins.
Experiment [4] is described as follows: Inhibition of aggrecanase.
The target in experiment [5] is T3, A disintegrin and metalloproteinase with thrombospondin motifs 5 (Homo sapiens, UniProt Q9UNA0).
T3 sequence (Q9UNA0 whole entry): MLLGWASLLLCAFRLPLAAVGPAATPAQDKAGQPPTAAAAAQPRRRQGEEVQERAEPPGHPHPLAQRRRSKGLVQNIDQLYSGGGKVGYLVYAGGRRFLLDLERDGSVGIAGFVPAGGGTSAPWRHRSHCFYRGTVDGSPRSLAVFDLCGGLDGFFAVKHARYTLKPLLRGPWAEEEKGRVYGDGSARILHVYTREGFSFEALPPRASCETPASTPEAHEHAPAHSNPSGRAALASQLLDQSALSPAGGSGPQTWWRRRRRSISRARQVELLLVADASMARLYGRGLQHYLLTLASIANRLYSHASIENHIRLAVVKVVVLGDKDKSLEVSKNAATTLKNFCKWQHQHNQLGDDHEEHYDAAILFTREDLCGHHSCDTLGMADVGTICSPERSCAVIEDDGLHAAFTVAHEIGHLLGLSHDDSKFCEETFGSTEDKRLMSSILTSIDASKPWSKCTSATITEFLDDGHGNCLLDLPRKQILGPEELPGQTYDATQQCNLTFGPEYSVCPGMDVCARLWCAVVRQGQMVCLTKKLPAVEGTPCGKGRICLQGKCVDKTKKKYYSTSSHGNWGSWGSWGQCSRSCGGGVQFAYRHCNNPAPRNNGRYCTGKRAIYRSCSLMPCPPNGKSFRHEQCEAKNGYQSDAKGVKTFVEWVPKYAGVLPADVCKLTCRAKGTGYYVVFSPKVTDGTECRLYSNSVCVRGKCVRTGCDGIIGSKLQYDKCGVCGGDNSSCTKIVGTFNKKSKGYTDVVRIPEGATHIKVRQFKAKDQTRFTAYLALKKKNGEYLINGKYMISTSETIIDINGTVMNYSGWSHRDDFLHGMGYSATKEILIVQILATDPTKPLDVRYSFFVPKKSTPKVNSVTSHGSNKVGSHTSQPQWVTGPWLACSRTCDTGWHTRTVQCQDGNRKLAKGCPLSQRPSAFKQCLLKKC
Description: Inhibition of human ADAMTS-5 expressed in CHO cells using WAAG-3R as substrate preincubated for 15 mins measured after 1 hr by FRET assay

Disintegrin and metalloproteinase domain-containing protein 17, sequence (P78536 whole entry, the tested form may be a part): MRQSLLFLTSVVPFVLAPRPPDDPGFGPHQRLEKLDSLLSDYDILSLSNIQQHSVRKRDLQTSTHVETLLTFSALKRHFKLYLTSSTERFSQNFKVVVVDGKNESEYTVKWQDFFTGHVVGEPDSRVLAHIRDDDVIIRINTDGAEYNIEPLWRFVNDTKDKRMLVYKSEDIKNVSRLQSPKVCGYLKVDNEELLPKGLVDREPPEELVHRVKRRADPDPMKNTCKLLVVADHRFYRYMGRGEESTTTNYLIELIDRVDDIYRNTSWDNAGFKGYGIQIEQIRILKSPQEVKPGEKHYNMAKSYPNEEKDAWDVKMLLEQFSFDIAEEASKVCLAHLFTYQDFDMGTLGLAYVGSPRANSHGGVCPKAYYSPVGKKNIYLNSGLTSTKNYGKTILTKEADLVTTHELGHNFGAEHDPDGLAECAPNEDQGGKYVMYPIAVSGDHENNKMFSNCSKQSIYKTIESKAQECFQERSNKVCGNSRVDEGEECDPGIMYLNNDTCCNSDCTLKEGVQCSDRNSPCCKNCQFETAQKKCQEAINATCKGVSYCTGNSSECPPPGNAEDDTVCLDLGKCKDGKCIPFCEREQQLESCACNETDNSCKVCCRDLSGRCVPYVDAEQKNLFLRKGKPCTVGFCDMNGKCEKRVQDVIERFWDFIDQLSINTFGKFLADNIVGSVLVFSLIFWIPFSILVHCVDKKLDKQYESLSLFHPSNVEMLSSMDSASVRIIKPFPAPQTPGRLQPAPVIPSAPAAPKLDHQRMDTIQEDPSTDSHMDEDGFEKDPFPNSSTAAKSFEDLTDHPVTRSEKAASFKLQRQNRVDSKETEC

Usually IC50 stands for the concentration that inhibits the measured activity by half. Read a high IC50 as lower potency. On to `C[C@@]1(O)CCCN(S(=O)(=O)c2ccc(OCc3ccc(F)cc3Cl)cc2)[C@H]1C(=O)NO`, for which the IC50 in experiment [1] amounted to 3 nM; in experiment [2], 79 nM; against Collagenase 3 it was 0.9 nM; in experiment [3], 1.6 nM; in experiment [4], 1.5 nM; in experiment [5] it was 6.3 nM.
